ChEMBL document CHEMBL4350989, “Discovery of 2,4-diarylaminopyrimidine derivatives bearing dithiocarbamate moiety as novel FAK inhibitors with antitumor and anti-angiogenesis activities” (Eur J Med Chem, 2019)
Calls of active or inactive are those of the source. No cut-off for these calls is given here.

Assays:
[1] = test system: HCT-116; experiment: Antiproliferative activity against human HCT116 cells overexpressing FAK assessed as reduction in cell viability after 72 hrs by MTS assay; conditions: HCT-116, 72 h
[2] = test system: PC-3; experiment: Antiproliferative activity against human PC3 cells overexpressing FAK assessed as reduction in cell viability after 72 hrs by MTS assay; conditions: PC-3, 72 h
[3] = test system: MCF7; experiment: Antiproliferative activity against human MCF7 cells overexpressing FAK assessed as reduction in cell viability after 72 hrs by MTS assay; conditions: MCF7, 72 h
[4] = test system: MCF-10A; experiment: Cytotoxicity against human MCF10A cells assessed as reduction in cell viability after 72 hrs by MTS assay
[5] = test system: HCT-116; experiment: Induction of cell cycle arrest in human HCT116 cells assessed as accumulation at G0/G1 phase at 0.005 uM after 24 hrs by 7-AAD staining-based flow cytometric analysis (reference value: 50.53%); assay type: functional
[6] = test system: HCT-116; experiment: Induction of cell cycle arrest in human HCT116 cells assessed as accumulation at G2/M phase at 0.005 uM after 24 hrs by 7-AAD staining-based flow cytometric analysis (reference value: 12.26%); assay type: functional
[7] = test system: HCT-116; experiment: Induction of cell cycle arrest in human HCT116 cells assessed as accumulation at G0/G1 phase at 0.05 uM after 24 hrs by 7-AAD staining-based flow cytometric analysis (reference value: 50.53%); assay type: functional
[8] = test system: HCT-116; experiment: Induction of cell cycle arrest in human HCT116 cells assessed as accumulation at G2/M phase at 0.05 uM after 24 hrs by 7-AAD staining-based flow cytometric analysis (reference value: 12.26%); assay type: functional
[9] = test system: HCT-116; experiment: Induction of cell cycle arrest in human HCT116 cells assessed as accumulation at S phase at 0.05 uM after 24 hrs by 7-AAD staining-based flow cytometric analysis (reference value: 37.20%); assay type: functional
[10] = test system: HCT-116; experiment: Induction of cell cycle arrest in human HCT116 cells assessed as accumulation at G2/M phase at 0.1 uM after 24 hrs by 7-AAD staining-based flow cytometric analysis (reference value: 12.26%); assay type: functional
[11] = test system: HCT-116; experiment: Induction of cell cycle arrest in human HCT116 cells assessed as accumulation at S phase at 0.1 uM after 24 hrs by 7-AAD staining-based flow cytometric analysis (reference value: 37.20%); assay type: functional
[12] = test system: MCF7; experiment: Induction of cell cycle arrest in human MCF7 cells assessed as accumulation at G0/G1 phase at 0.005 uM after 24 hrs by 7-AAD staining-based flow cytometric analysis (reference value: 62.45%); assay type: functional
[13] = test system: MCF7; experiment: Induction of cell cycle arrest in human MCF7 cells assessed as accumulation at G2/M phase at 0.05 uM after 24 hrs by 7-AAD staining-based flow cytometric analysis (reference value: 11.48%); assay type: functional
[14] = test system: MCF7; experiment: Induction of cell cycle arrest in human MCF7 cells assessed as accumulation at S phase at 0.05 uM after 24 hrs by 7-AAD staining-based flow cytometric analysis (reference value: 26.07%); assay type: functional
[15] = test system: MCF7; experiment: Induction of cell cycle arrest in human MCF7 cells assessed as accumulation at G0/G1 phase at 0.01 uM after 24 hrs by 7-AAD staining-based flow cytometric analysis (reference value: 62.45%); assay type: functional
[16] = test system: MCF7; experiment: Induction of cell cycle arrest in human MCF7 cells assessed as accumulation at G2/M phase at 0.01 uM after 24 hrs by 7-AAD staining-based flow cytometric analysis (reference value: 11.48%); assay type: functional
[17] = test system: MCF7; experiment: Induction of cell cycle arrest in human MCF7 cells assessed as accumulation at S phase at 0.01 uM after 24 hrs by 7-AAD staining-based flow cytometric analysis (reference value: 26.07%); assay type: functional
[18] = test system: HCT-116; experiment: Induction of cell cycle arrest in human HCT116 cells assessed as increase in accumulation at G2/M phase after 24 hrs by 7-AAD staining-based flow cytometric analysis; assay type: functional
[19] = test system: MCF7; experiment: Induction of cell cycle arrest in human MCF7 cells assessed as increase in accumulation at G2/M phase after 24 hrs by 7-AAD staining-based flow cytometric analysis; assay type: functional
[20] = test system: MCF7; experiment: Induction of apoptosis in human MCF7 cells assessed as early apoptotic cells at 0.005 uM after 24 hrs by Annexin-V and 7-AAD staining based flow cytometric analysis (reference value: 2.04%); assay type: functional
[21] = test system: MCF7; experiment: Induction of apoptosis in human MCF7 cells assessed as late apoptotic cells at 0.005 uM after 24 hrs by Annexin-V and 7-AAD staining based flow cytometric analysis (reference value: 7.63%); assay type: functional
[22] = test system: MCF7; experiment: Induction of apoptosis in human MCF7 cells assessed as late apoptotic cells at 0.01 uM after 24 hrs by Annexin-V and 7-AAD staining based flow cytometric analysis (reference value: 7.63%); assay type: functional
[23] = test system: MCF7; experiment: Induction of apoptosis in human MCF7 cells assessed as early apoptotic cells at 0.05 uM after 24 hrs by Annexin-V and 7-AAD staining based flow cytometric analysis (reference value: 2.04%); assay type: functional
[24] = test system: MCF7; experiment: Induction of apoptosis in human MCF7 cells assessed as late apoptotic cells at 0.05 uM after 24 hrs by Annexin-V and 7-AAD staining based flow cytometric analysis (reference value: 7.63%); assay type: functional
[25] = test system: MCF7; experiment: Induction of apoptosis in human MCF7 cells assessed as necrotic cells at 0.05 uM after 24 hrs by Annexin-V and 7-AAD staining based flow cytometric analysis (reference value: 0.16%); assay type: functional
[26] = test system: HCT-116; experiment: Induction of apoptosis in human HCT116 cells assessed as early apoptotic cells at 0.005 uM after 24 hrs by Annexin-V and 7-AAD staining based flow cytometric analysis (reference value: 8.11%); assay type: functional
[27] = test system: HCT-116; experiment: Induction of apoptosis in human HCT116 cells assessed as viable cells at 0.1 uM after 24 hrs by Annexin-V and 7-AAD staining based flow cytometric analysis (reference value: 88.6%); assay type: functional; conditions: HCT-116, 24 h, read-out: Activity
[28] = test system: HCT-116; experiment: Induction of apoptosis in human HCT116 cells assessed as early apoptotic cells at 0.1 uM after 24 hrs by Annexin-V and 7-AAD staining based flow cytometric analysis ((reference value: 8.11%); assay type: functional
[29] = test system: HCT-116; experiment: Induction of apoptosis in human HCT116 cells assessed as late apoptotic cells at 0.1 uM after 24 hrs by Annexin-V and 7-AAD staining based flow cytometric analysis (reference value: 2.63%); assay type: functional
[30] = test system: HCT-116; experiment: Induction of apoptosis in human HCT116 cells assessed as early apoptotic cells at 0.05 uM after 24 hrs by Annexin-V and 7-AAD staining based flow cytometric analysis (reference value: 8.11%); assay type: functional
[31] = test system: HCT-116; experiment: Induction of apoptosis in human HCT116 cells assessed as late apoptotic cells at 0.05 uM after 24 hrs by Annexin-V and 7-AAD staining based flow cytometric analysis (reference value: 2.63%); assay type: functional
[32] = test system: HCT-116; experiment: Induction of apoptosis in human HCT116 cells assessed as necrotic cells at 0.05 uM after 24 hrs by Annexin-V and 7-AAD staining based flow cytometric analysis (reference value: 0.68%); assay type: functional
[33] = organism: Homo sapiens; conditions: 0.05 to 0.1 uM
Description: Antimigratory activity against human MCF7 cells assessed as reduction in cell migration at 0.05 to 0.1 uM incubated for 30 mins and measured after 24 hrs by crystal violet staining based inverted microscopic analysis

## CNC(=O)c1ccccc1Nc1nc(Nc2ccc(C(=O)N3CCN(C(=S)SCCN(C)C)CC3)cc2)ncc1C(F)(F)F
[1]
  IC50: 1 nM
[2]
  IC50: 30 nM
[3]
  IC50: 20 nM
[4]
  IC50: 280 nM
[5]
  Activity: 39.76%
[6]
  Activity: 18.38%
[7]
  Activity: 3.4%
[8]
  Activity: 87.56%
[9]
  Activity: 9.05%
[10]
  Activity: 90.46%
[11]
  Activity: 4.4%
[12]
  Activity: 41.93%
[13]
  Activity: 86.08%
[14]
  Activity: 7.2%
[15]
  Activity: 9.52%
[16]
  Activity: 81.73%
[17]
  Activity: 8.75%
[18]
  Activity: Dose-dependent effect
[19]
  Activity: Dose-dependent effect
[20]
  Activity: 9.11%
[21]
  Activity: 16.5%
[22]
  Activity: 21.4%
[23]
  Activity: 13.7%
[24]
  Activity: 25.7%
[25]
  Activity: 0.56%
[26]
  Activity: 15.9%
[27]
  viability at 0.1 µM: 78.4%
[28]
  Activity: 21.5%
[29]
  Activity: 0.16%
[30]
  Activity: 18.7%
[31]
  Activity: 1.68%
[32]
  Activity: 0.29%
[33]
  inhibition: Active
